Key:
[1] = system: hDAT W84C; conditions: W84C mutant; cited from earlier work
[2] = target: full-length hDAT (Homo sapiens, UniProt Q01959); conditions: full-length hDAT, HEK293 GnTI− cells, mean ± s.d., n = 3
Protocol: (§1) HEK293 GnTI^− cells were transduced with Δ-hDAT and full-length hDAT P2 viruses, propagated in SF9 cells using standard methods as described in ‘Protein expression and purification’, at a cell density of 2.5 – 3.0 × 10^6 cells per ml, followed by incubation at 37 °C for 6 h. After 6 h, sodium butyrate was added to a final concentration of 10 mM, and the cells were transferred to 30 °C with 8% CO2 for 6 h. The transduced cells were seeded into 96-well poly-D-lysine coated Isoplates (Perkin Elmer) at a density of 100,000 cells per well. The plates were then incubated at 30 °C for 12–16 h before the uptake assay was initiated. The cells were initially washed with 37 °C uptake assay buffer composed of 25 mM HEPES pH 7.4, 120 mM NaCl, 5 mM KCl, 1.2 mM CaCl2, 1.2 mM MgSO4, 5 mM D-glucose, 1 mM ascorbic acid, and 1 µM Ro 41-0960, followed by incubation in 50 µl of the same buffer for 10 min. Replicates with 10 µM of GBR12909 in the uptake assay buffer were used to measure background. […] The uptake reaction was stopped by adding 100 µl of chilled inhibition buffer, uptake assay buffer supplemented with 2.5 µM GBR12909. Two consecutive washes with 100 µl of inhibition buffer were carried out, followed by resuspension of cells in 100 µl of 1% Triton X-100. Finally, 100 µl of liquid scintillation cocktail was added to each well and [^3H] counts were measured using a MicroBeta2 (Perkin Elmer). Background counts from three replicates were averaged and subtracted from total counts.

[3] = target: ∆-hDAT (Homo sapiens, UniProt Q01959, I248Y); conditions: ∆-hDAT, HEK293 GnTI− cells, mean ± s.d., n = 3
Protocol: as §1

[4] = substrate: NCCc1ccc(O)c(O)c1; assay: cells, lysate or membranes; conditions: HEK293 GnTI− cells, Michaelis–Menten model, mean ± s.d., n = 3, pH 7.4

CCc1ccc2[nH]c3nc(SCCNS(=O)(=O)c4ccc(NC(C)=O)cc4)nnc3c2c1 [KM822]
effect of mutation on potency of KM822 [1]: increases the potency

NCCc1ccc(O)c(O)c1 [[^3H]dopamine, dopamine]
reaction rate at infinite substrate concentration (Vmax) for [3H]dopamine uptake [2]: 190.9 ± 10.7 fmol min^−1 per well
reaction rate at infinite substrate concentration (Vmax) for [3H]dopamine uptake [3]: 342.8 ± 11.7 fmol min^−1 per well

B1: full-length hDAT (Homo sapiens) (protein)
chain: MSKSKCSVGLMSSVVAPAKEPNAVGPKEVELILVKEQNGVQLTSSTLTNPRQSPVEAQDRETWGKKIDFLLSVIGFAVDLANVWRFPYLCYKNGGGAFLVPYLLFMVIAGMPLFYMELALGQFNREGAAGVWKICPILKGVGFTVILISLYVGFFYNVIIAWALHYLFSSFTTELPWIHCNNSWNSPNCSDAHPGDSSGDSSGLNDTFGTTPAAEYFERGVLHLHQSHGIDDLGPPRWQLTACLVLVIVLLYFSLWKGVKTSGKVVWITATMPYVVLTALLLRGVTLPGAIDGIRAYLSVDFYRLCEASVWIDAATQVCFSLGVGFGVLIAFSSYNKFTNNCYRDAIVTTSINSLTSFSSGFVVFSFLGYMAQKHSVPIGDVAKDGPGLIFIIYPEAIATLPLSSAWAVVFFIMLLTLGIDSAMGGMESVITGLIDEFQLLHRHRELFTLFIVLATFLLSLFCVTNGGIYVFTLLDHFAAGTSILFGVLIEAIGVAWFYGVGQFSDDIQQMTGQRPSLYWRLCWKLVSPCFLLFVVVVSIVTFRPPHYGAYIFPDWANALGWVIATSSMAMVPIYAAYKFCSLPGSFREKLAYAIAPEKDRELVDRGEVRQFTLRHWLKV
Km ([4]; other: full-length hDAT): 0.56 ± 0.13 µM

B2: ∆-hDAT (Homo sapiens; I248Y) (protein)
chain: AQDRETWGKKIDFLLSVIGFAVDLANVWRFPYLCYKNGGGAFLVPYLLFMVIAGMPLFYMELALGQFNREGAAGVWKICPILKGVGFTVILISLYVGFFYNVIIAWALHYLFSSFTTELPWIHCNNSWNSPNCSDAHPGDSSGDSSGLNDTFGTTPAAEYFERGVLHLHQSHGIDDLGPPRWQLTACLVLVYVLLYFSLWKGVKTSGKVVWITATMPYVVLTALLLRGVTLPGAIDGIRAYLSVDFYRLCEASVWIDAATQVCFSLGVGFGVLIAFSSYNKFTNNCYRDAIVTTSINSLTSFSSGFVVFSFLGYMAQKHSVPIGDVAKDGPGLIFIIYPEAIATLPLSSAWAVVFFIMLLTLGIDSAMGGMESVITGLIDEFQLLHRHRELFTLFIVLATFLLSLFCVTNGGIYVFTLLDHFAAGTSILFGVLIEAIGVAWFYGVGQFSDDIQQMTGQRPSLYWRLCWKLVSPCFLLFVVVVSIVTFRPPHYGAYIFPDWANALGWVIATSSMAMVPIYAAYKFCSLPGSFREKLAYAIAPEKDRELVDRGEVRQFTLRHWLKV
Km ([4]; other: ∆-hDAT): 0.55 ± 0.07 µM

From publication PMC11324517 (Nature, 2024)
